# Assays:
# [1] = target: T1, Polyunsaturated fatty acid lipoxygenase ALOX15 (Oryctolagus cuniculus, UniProt P12530); assay: biochemical; format: tissue-based, Reticulocytes;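 also: inhibition of 15-lipoxygenase enzyme activity measured with linoleic acid as the substrate; in other assays of this panel Not Active means under 50% inhibition at 10 µM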
# T1 sequence (P12530 whole entry): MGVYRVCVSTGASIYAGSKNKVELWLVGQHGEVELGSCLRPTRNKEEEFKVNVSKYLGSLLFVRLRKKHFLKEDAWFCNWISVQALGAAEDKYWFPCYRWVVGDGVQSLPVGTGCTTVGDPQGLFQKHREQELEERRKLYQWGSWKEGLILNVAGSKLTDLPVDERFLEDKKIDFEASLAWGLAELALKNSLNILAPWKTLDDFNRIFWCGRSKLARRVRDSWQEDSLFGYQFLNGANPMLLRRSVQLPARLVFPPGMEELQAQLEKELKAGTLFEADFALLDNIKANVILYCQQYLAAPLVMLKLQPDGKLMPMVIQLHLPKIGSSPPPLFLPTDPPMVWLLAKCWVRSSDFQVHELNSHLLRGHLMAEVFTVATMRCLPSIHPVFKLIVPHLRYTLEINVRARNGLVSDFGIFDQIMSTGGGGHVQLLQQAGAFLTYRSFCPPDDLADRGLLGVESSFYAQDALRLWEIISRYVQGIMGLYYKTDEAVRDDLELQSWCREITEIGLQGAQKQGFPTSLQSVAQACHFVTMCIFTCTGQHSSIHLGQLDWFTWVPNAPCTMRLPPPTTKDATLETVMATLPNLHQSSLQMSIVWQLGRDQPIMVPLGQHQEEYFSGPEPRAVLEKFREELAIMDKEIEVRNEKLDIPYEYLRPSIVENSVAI
# [2] = DRUGMATRIX: Phosphodiesterase PDE4 enzyme inhibition (substrate: [3H]cAMP + cAMP); details: u-937; Not Active = under 50% inhibition at 10 µM
# [3] = DRUGMATRIX: Nicotinic Acetylcholine radioligand binding (ligand: [125I] Epibatidine); format: cell membranes, Membrane; details: imr-32; Not Active = under 50% inhibition at 10 µM
# Interstitial collagenase = target: T2, Interstitial collagenase (Homo sapiens, UniProt P03956); format: tissue-based, Rheumatoid synovial fibroblasts;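 also: MMP-1 enzyme inhibition assay using a peptide substrate; in other assays of this panel Not Active means under 50% inhibition at 10 µM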
# T2 sequence (P03956 whole entry): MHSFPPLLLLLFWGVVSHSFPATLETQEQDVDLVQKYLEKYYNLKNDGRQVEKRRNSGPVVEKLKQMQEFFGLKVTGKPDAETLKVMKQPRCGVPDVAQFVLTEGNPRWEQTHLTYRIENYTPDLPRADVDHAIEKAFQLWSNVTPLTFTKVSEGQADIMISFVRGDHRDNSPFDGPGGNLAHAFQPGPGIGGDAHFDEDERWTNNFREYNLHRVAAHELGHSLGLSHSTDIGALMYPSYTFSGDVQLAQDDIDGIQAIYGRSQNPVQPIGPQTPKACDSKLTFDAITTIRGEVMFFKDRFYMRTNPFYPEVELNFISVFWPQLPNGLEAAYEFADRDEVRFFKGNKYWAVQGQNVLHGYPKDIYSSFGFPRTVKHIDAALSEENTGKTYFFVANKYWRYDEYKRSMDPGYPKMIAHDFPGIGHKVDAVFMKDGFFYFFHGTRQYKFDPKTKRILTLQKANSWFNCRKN
# [4] = target: T3, Type-2 angiotensin II receptor (Homo sapiens, UniProt P50052); format: cell-based; details: cho-k1; also: in other assays of this panel Not Active means under 50% inhibition at 10 µM
# T3 sequence (P50052 whole entry): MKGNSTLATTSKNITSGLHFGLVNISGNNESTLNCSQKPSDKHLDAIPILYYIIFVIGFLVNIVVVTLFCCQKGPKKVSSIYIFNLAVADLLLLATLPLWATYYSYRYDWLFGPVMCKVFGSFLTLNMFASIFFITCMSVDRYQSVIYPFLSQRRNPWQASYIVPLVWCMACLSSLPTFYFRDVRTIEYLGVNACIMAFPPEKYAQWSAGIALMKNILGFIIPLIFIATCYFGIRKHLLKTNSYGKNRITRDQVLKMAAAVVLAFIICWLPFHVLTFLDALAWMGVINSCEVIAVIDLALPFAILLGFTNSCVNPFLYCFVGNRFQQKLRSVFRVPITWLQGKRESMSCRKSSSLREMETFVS
# [5] = target: T4, Muscarinic acetylcholine receptor M2 (Homo sapiens, UniProt P08172); format: cell membranes, CHO-K1, Membrane; details: for Ki: read-out: Ki; as to all read-outs here: in other assays of this panel Not Active means under 50% inhibition at 10 µM
# T4 sequence (P08172 whole entry): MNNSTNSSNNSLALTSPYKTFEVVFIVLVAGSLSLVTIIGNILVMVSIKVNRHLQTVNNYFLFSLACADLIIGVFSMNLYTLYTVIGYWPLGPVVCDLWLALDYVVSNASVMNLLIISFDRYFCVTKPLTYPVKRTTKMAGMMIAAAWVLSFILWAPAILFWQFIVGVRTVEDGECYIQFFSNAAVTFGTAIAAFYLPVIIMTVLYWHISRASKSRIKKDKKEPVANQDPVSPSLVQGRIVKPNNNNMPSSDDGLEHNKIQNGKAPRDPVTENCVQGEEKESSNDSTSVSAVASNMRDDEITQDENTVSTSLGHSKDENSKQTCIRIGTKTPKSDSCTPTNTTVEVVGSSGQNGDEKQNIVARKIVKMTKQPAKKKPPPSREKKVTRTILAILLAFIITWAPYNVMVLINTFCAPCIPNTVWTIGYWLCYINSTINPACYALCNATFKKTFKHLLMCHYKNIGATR
# [6] = target: T5, Amine oxidase [flavin-containing] A (Homo sapiens, UniProt P21397); assay: DRUGMATRIX: Monoamine Oxidase MAO-A enzyme inhibition (substrate: Kynuramine); set-up: species or system BTI-TN-5B1-4; details: bti-tn-5b1-4; Not Active = under 50% inhibition at 10 µM
# T5 sequence (P21397 whole entry): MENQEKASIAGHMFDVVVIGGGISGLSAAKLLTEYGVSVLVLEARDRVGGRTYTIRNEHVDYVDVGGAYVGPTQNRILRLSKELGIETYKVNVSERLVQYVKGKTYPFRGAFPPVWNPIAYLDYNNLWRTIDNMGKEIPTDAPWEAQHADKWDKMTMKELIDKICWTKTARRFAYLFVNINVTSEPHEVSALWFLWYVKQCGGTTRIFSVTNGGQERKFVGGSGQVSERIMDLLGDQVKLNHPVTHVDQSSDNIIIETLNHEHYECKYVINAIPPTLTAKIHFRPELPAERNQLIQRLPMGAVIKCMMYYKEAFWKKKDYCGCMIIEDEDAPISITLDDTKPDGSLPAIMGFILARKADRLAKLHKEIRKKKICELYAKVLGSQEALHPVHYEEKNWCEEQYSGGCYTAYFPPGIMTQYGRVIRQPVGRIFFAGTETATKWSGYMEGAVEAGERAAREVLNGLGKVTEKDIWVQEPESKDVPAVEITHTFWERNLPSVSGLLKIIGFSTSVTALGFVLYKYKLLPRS
# [7] = DRUGMATRIX: Phorbol Ester radioligand binding (ligand: [3H] PDBu); format: cell membranes, Mus musculus, ICR, Brain, Membrane; details: Not Active = under 50% inhibition at 10 µM
Structure (SMILES),IC50 ([1]; reticulocytes),IC50 [2],Ki [2],IC50 [3],Ki [3],IC50 (Interstitial collagenase),IC50 [4],IC50 ([5]; cho-k1),IC50 [6],IC50 [7],Ki [7],IC50 ([5]; read-out: IC50),Ki [5],IC50 ([1]; read-out: IC50)
NCCCC[C@H](N[C@@H](CCc1ccccc1)C(=O)O)C(=O)N1CCC[C@H]1C(=O)O [LISINOPRIL ANHYDROUS],Not Active,Not Active,Not Active,Not Active,Not Active,Not Active,Not Active,Not Active,Not Active,Not Active,Not Active,–,–,–
CN1[C@@H]2CC[C@H]1C[C@@H](OC(=O)c1c[nH]c3ccccc13)C2 [TROPISETRON],Not Active,Not Active,Not Active,Not Active,Not Active,Not Active,Not Active,Not Active,Not Active,Not Active,Not Active,–,–,–
CC(=O)[C@H]1CC[C@H]2[C@@H]3CCC4=CC(=O)CC[C@]4(C)[C@H]3CC[C@]12C [PROGESTERONE],Not Active,Not Active,Not Active,Not Active,Not Active,Not Active,Not Active,Not Active,Not Active,Not Active,Not Active,–,–,–
COc1cccc(C2(O)CCCCC2CN(C)C)c1 (stereo unspecified) [TRAMADOL],Not Active,–,–,–,–,Not Active,Not Active,Not Active,Not Active,–,–,–,–,–
C[C@](N)(Cc1ccc(O)cc1)C(=O)O [METYROSINE],Not Active,Not Active,Not Active,Not Active,Not Active,Not Active,Not Active,Not Active,Not Active,Not Active,Not Active,–,–,–
CC1(C)[C@H]2CC[C@]1(C)C(=O)C2 [(-)-CAMPHOR],Not Active,Not Active,Not Active,Not Active,Not Active,Not Active,Not Active,Not Active,Not Active,Not Active,Not Active,–,–,–
C=CC[C@@H]1/C=C(\C)C[C@H](C)C[C@H](OC)[C@H]2O[C@@](O)(C(=O)C(=O)N3CCCC[C@H]3C(=O)O[C@H](/C(C)=C/[C@@H]3CC[C@@H](O)[C@H](OC)C3)[C@H](C)[C@@H](O)CC1=O)[C@H](C)C[C@@H]2OC [TACROLIMUS ANHYDROUS],Not Active,Not Active,Not Active,Not Active,Not Active,Not Active,Not Active,Not Active,Not Active,Not Active,Not Active,–,–,–
c1ccc2[nH]c(-c3cscn3)nc2c1 [THIABENDAZOLE],Not Active,Not Active,Not Active,Not Active,Not Active,Not Active,Not Active,Not Active,Not Active,Not Active,Not Active,–,–,–
CN(C)CCCN1c2ccccc2CCc2ccc(Cl)cc21 [CLOMIPRAMINE],Not Active,–,–,–,–,Not Active,Not Active,–,Not Active,–,–,241 nM,86 nM,–
CC(C)(O)c1ccccc1CC[C@@H](SCC1(CC(=O)O)CC1)c1cccc(/C=C/c2ccc3ccc(Cl)cc3n2)c1 [MONTELUKAST],Not Active,–,–,–,–,Not Active,Not Active,Not Active,Not Active,–,–,–,–,–
Clc1ccccc1C(c1ccccc1)(c1ccccc1)n1ccnc1 [CLOTRIMAZOLE],Not Active,–,–,–,–,Not Active,Not Active,–,Not Active,–,–,14500 nM,5170 nM,–
CSc1ccc2c(c1)N(CCC1CCCCN1C)c1ccccc1S2 (stereo unspecified) [THIORIDAZINE],Not Active,–,–,–,–,Not Active,Not Active,–,Not Active,–,–,–,–,–
COc1ccc(CCN2CCC(Nc3nc4ccccc4n3Cc3ccc(F)cc3)CC2)cc1 [ASTEMIZOLE],Not Active,–,–,–,–,Not Active,Not Active,–,Not Active,–,–,–,–,–
O=C1c2c(O)ccc(O)c2C(=O)c2c(NCCNCCO)ccc(NCCNCCO)c21 [MITOXANTRONE],–,Not Active,Not Active,Not Active,Not Active,Not Active,Not Active,–,Not Active,Not Active,Not Active,–,–,1790 nM
O=C(CCCN1CCC(O)(c2ccc(Cl)cc2)CC1)c1ccc(F)cc1 [HALOPERIDOL],Not Active,–,–,–,–,Not Active,Not Active,Not Active,Not Active,–,–,–,–,–
CN1CCN2c3ccccc3Cc3ccccc3C2C1 (stereo unspecified) [MIANSERIN],Not Active,–,–,–,–,Not Active,Not Active,–,Not Active,–,–,–,–,–
